This is an account of results in patent US20090247589A1, “Monocarboxylates for modifying macrophage function” (The Brigham and Women's Hospital, Inc., priority 2006, published 2009).

In data set [1] the test system is RAW 264.7 cells. Nature of the data set: Proinflammatory cytokine production by RAW 264.7 cells stimulated with IFN-γ plus uric acid. The format is cell-based, murine.
The subject of the next data set is cardiac graft. The following applies: continuous infusion by osmotic minipumps for 4 weeks; 60-80 μmol/kg/day; outliers excluded. On the procedure:
(§1) The dose of nicotinic acid was 60-80 μmol/kg/day, corresponding to 500-1000 mg of nicotinic acid in a 70 kg human (depending on bioavailability).

The test system of data set [2] is RAW 264.7 cells. The following applies: MTT assay. On the procedure: as §1
For data set [3], the system named is RAW 264.7 cells. To be noted: LPS-stimulated RAW 264.7 cells; concomitant administration.

`O=c1[nH]c(=O)c2[nH]c(=O)[nH]c2[nH]1` [uric acid]: in the data set on RAW 264.7 cells [1] (uric acid together with other macrophage stimulators such as IFN-γ), the “production of proinflammatory cytokines such as TNF-α (stimulating effect)” value is listed as “synergistically, further stimulating production”.
Consider `O=C(O)c1cccnc1` [nicotinic acid], for which, in the data set on RAW 264.7 cells [1] (concomitant administration), the “abrogation of uric acid + IFN-γ stimulated production of proinflammatory cytokines such as TNF-α” value is “largely abrogated”. Besides, the “graft condition (histology) compared to saline-treated controls” value in the data set on cardiac graft is listed as “near normal grafts”. Further, the “effect on cell proliferation” value in the data set with RAW 264.7 cells [2] is on record as “nor nicotinic acid have any significant effect”. In the data set on RAW 264.7 cells [3], the “production of IL-6” value is given as “significantly reduced” and the “production of TNF-α” value is reported as “significantly reduced”.
